Data set [1] concerns the target late INa (Canis lupus familiaris, UniProt Q865W3). Description: Late INa during action potential voltage clamp in canine midmyocardial myocytes. The class given is cell-based.
The target in data set [2] is T1, sodium-calcium exchange current (INa-Ca) (Canis lupus familiaris, UniProt P23685).
T1 construct: Single myocytes were obtained by enzymatic dissociation from a wedge-shaped section of the ventricular free wall; endogenous in cells; host or cells: isolated canine left ventricular myocytes
In words: Sodium-calcium exchange current voltage clamp in isolated canine left ventricular myocytes. Format: cell-based. Conditions: read-out: IC50 for inhibition of INa-Ca.

Data set [3] relates to patients with LQT3-ΔKPQ mutation. Description: 8-hour intravenous ranolazine infusion in patients with hereditary long QT-syndrome LQT3-ΔKPQ. The class given is in vivo, human. From the text: Subjects were drawn from the U.S. portion of the international LQTS Registry. Eligibility criteria for enrollment in the study were genotype confirmed LQT3-ΔKPQ mutation with QTc>0.47 sec, males or females age 18-55 years of age, and signed informed consent to participate in this study. Patients already taking beta-blocking medication were continued on the drug. Patients with an implanted pacemaker or defibrillator or those with prior cervical-thoracic sympathetic ganglionectomy were not excluded. Exclusion criteria included significant comorbility that would preclude the patient's safe participation in this study, pregnancy or women of child-bearing age not receiving appropriate contraceptive therapy with any other sodium-channel blocker, use of medications that inhibit CYP-3A4 hepatic enzymes, (including diltiazem or verapamil) and psycho-social problems that could compromise compliance with the protocol. Thirteen patients with the LQT3-ΔKPQ mutation from two unrelated families met the eligibility criteria without exclusion, and of eight contacted patients five agreed to participate in the study.
Each patient had clinical and laboratory assessment including ultrasound evaluation on Day-2. Baseline studies off drug began at 8:00 am on Day-1: 12-lead ECG recorded at 8:00 am and every 0.5 hour for 8 hours and then at 2, 4, and 16 hours thereafter; a continuous 12-lead Holter was recorded for 24 hours. The 8-hour infusion of intravenous ranolazine was started at 8:00 am on Day 1 with time-matched ECG recordings at the same times as on Day-1. The second echocardiogram was obtained just before completion of the 8-hour of ranolazine infusion on Day 1. Blood samples for plasma ranolazine concentrations were drawn at hourly intervals during the ranolazine infusion, and at 2, 4, and 16 hours following completion of ranolazine infusion on Day 1.
Five patients with LQT3-ΔKPQ mutation were prospectively investigated during 8-hour intravenous infusions of ranolazine with electrocardiographic and echocardiographic evaluation before and during ranolazine administration. Ranolazine was infused at a rate of 40 mg/hr for 3 hours, with doubling of the infusion rate during the subsequent 5 hours while obtaining hourly ranolazine blood levels.
Changes in electrocardiographic parameters from before to during ranolazine infusion were evaluated by time-matched, paired t-test analyses, with repeated measures analysis of variance (ANOVA) where appropriate. The primary pre-specified electrocardiographic QTc analysis utilized a mixed-effects linear model of the change from time-matched baseline in QTc during ranolazine infusion with a fixed effect for time and a random effect for subject. A linear regression equation relating ranolazine blood level to QTc was developed using an analysis of covariance with effects for ranolazine level, subject and the interaction of subject with ranolazine level. The echocardiographic analyses involved evaluation of baseline parameters relative to normal standards for the laboratory as well as statistical comparisons of change in specific quantitative parameters between baseline and the peak ranolazine infusion. Two-sided p-values<0.05 were considered significant.
12-lead ECGs and 24-hour 12-lead Holter ECGs were obtained to evaluate ventricular repolarization before, during, and after ranolazine infusion. The QT interval and the Fridericia corrected QT interval for heart rate (QTc) were measured according to standard criteria. QT was measured from the beginning of QRS complex to the end of T wave determined by an intersection of T wave and isoelectric line or to the nadir between T and U waves. U waves were not incorporated in the measurement of QT interval. Measurement of T-wave patterns included QT peak (ms), T-wave duration (ms), T peak-T end (ms), and T-wave amplitude (mv). The ECG parameters were measured on 3 consecutive beats in lead II, with lead aVF or V5 used if lead II was technically unsatisfactory. […]

The test system of data set [4] is inward rectifier potassium current (IK1). In words: Voltage clamp of inward rectifier IK1 in canine ventricular myocytes. Format: cell-based. Conditions: ranolazine up to 100 μM. The procedure:
Myocytes were isolated by enzymatic dissociation from a wedge-shaped section of the left ventricular free wall supplied by the left circumflex coronary artery. Cells from the epicardial and midmyocardial regions of the left ventricle were used in this study.
Inward rectifier potassium current (IK), slow delayed rectifier potassium current (IKs), and rapid delayed rectifier potassium current (IKr) were recorded at 37° C. using conventional whole cell voltage clamp configuration.
IK1 was measured using an external solution containing 3 μM ouabain and 5 μM nifedipine to block the sodium-potassium pump and L-type calcium current (ICa,L), respectively. […] 5 μM nifedipine was present in the external solution when IKr was being recorded. […]
IKr was measured as the time-dependent tail current elicited at a potential of −40 mV following a short 250 ms depolarizing pulse to 30 mV. Data are presented as mean ±S.E.M. IK1 was recorded during 900 msec voltage steps applied from a holding potential of −40 mV to test potentials ranging from −100 mV to 0 mV, and was characterized as the 5 msec average of the steady state current at the end of the test pulse.
The inward rectifier, IK1, was recorded using perforated-patch voltage clamp techniques. […] Panel B plots composite data illustrating the current-voltage relations constructed from the average current measured at the end of each test pulse

[5] abbreviates: peak ranolazine infusion vs baseline.

The record followed here is patent US20080109040A1, “METHOD OF TREATING ARRHYTHMIAS” (priority 2002, published 2008).

Read-outs that look alike come from different tables or passages of the source.

Sequence of late INa (Q865W3 1-2013): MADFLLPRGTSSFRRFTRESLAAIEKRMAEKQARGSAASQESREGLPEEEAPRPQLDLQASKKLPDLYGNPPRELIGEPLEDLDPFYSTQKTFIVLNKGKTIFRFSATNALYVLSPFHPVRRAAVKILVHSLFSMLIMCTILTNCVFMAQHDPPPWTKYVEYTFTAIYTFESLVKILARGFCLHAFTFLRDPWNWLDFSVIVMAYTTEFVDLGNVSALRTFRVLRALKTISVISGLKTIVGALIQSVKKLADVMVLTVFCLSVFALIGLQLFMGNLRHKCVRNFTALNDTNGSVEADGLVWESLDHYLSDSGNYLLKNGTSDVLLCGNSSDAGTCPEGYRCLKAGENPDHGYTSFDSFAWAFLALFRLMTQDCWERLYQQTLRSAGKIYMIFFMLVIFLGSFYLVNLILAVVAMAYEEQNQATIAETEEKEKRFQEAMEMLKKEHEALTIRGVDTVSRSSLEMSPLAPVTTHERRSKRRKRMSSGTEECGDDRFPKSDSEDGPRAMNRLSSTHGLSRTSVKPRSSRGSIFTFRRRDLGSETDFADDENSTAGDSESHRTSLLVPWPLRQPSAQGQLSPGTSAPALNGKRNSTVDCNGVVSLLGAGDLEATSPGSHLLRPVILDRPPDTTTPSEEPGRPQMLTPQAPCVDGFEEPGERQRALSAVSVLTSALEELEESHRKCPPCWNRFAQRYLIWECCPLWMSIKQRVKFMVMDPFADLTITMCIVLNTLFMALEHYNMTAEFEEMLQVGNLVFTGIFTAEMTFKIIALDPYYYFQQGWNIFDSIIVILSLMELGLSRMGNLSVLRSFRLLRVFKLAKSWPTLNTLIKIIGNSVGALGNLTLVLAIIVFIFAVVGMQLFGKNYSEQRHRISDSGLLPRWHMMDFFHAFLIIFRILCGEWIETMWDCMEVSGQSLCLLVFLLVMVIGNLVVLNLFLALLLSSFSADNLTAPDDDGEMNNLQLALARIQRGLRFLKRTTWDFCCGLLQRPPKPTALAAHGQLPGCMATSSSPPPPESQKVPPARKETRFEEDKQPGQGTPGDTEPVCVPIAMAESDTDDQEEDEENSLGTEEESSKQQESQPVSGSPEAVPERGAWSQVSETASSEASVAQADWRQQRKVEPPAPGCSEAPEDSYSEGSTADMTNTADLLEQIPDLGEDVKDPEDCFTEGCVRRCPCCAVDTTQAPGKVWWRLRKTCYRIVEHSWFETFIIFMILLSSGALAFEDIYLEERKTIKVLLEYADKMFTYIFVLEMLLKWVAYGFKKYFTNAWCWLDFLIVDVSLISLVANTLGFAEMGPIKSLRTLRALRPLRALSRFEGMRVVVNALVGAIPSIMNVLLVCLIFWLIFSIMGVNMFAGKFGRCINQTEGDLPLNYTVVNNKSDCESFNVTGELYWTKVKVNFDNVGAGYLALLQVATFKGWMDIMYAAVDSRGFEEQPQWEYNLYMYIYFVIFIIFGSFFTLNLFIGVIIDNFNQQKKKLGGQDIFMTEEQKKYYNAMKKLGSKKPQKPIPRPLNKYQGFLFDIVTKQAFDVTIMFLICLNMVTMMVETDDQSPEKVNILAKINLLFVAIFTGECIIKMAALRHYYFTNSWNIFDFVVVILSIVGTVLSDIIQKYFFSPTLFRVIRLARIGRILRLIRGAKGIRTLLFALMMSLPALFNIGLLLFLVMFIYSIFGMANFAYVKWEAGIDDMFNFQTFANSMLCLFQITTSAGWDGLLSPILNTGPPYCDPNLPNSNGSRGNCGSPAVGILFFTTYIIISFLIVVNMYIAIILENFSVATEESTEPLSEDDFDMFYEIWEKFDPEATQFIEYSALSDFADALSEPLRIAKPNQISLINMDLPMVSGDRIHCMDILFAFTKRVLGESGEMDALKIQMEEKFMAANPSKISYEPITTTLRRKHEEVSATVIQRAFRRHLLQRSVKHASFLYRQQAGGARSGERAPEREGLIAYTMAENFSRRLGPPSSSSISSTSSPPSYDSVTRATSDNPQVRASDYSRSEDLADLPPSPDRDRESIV

As to `COc1ccccc1OCC(O)CN1CCN(CC(=O)Nc2c(C)cccc2C)CC1` (racemic) [ranolazine, N-(2,6-dimethylphenyl)-4-[2-hydroxy-3-(2-methoxyphenoxy)propyl]-1-piperazineacetamide], the IC50 was found to be 5.9 µM in data set [1] (BCL 2000 ms, first value (plateau, 20 mV), read-out: Half-inhibition of late INa); 20.8 µM in data set [1] (BCL 2000 ms, second value (−28 mV), read-out: Half-inhibition of late INa); 11.5 µM in data set [1] (basic cycle length 300 ms, read-out: Half-inhibition of INa,late); 20.8 µM in data set [1] (basic cycle length 2000 ms, read-out: Half-inhibition of INa,late); 91 µM in data set [2]. The same molecule displayed a QTc during ranolazine in data set [3] (8-hour iv infusion, baseline 558±55 ms) of 532 ± 46 ms. For the same molecule, the “Mean reduction in QTc from baseline” value in data set [3] (entire 8-hour iv ranolazine infusion, 5 patients) was found to be 26 ± 3 ms. For the same molecule, the “Average slope of QTc vs. ranolazine plasma concentration” value in data set [3] (human, in vivo) is on record as −24 ms per 1000 ng/ml. The “Decrease in mitral E-wave deceleration time” value in data set [3] (setting [5]) turned out to be 18%. Moreover, the “Increase in mitral E-wave velocity” value in data set [3] (setting [5]) came out at 27%. For the same molecule, the “Shortening in left ventricular isovolumic relaxation time” value in data set [3] (setting [5]) is listed as 15%. Also, the Adverse effects entry in data set [3] (study patients) is given as “No adverse effects”. Also, the figures for the “Effect on IK1” value in data set [4] and in data set [4] (listed as Ranolazine) were “no change” and “did not alter”, respectively.
